33 molecules from patent US9260425B2 (Genetech, Inc., priority 2011, dated 2016) can be followed below.

Broadly, the Ki is a dissociation constant, usually derived from enzyme kinetics or from competition with a known ligand. Higher therefore signals weaker binding.

Pim-1, sequence (P11309 whole entry): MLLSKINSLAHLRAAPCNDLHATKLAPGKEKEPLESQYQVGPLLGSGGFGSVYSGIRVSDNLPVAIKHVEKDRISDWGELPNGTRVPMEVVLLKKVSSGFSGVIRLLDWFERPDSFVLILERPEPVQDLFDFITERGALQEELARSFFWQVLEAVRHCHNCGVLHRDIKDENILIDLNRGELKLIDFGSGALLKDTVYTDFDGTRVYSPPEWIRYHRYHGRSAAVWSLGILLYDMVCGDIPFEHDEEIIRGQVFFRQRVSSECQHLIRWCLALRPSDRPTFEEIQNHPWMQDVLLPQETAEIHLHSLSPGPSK

In this assay the target is Pim-1 (Homo sapiens (Human), UniProt P11309). Kind of assay: Pim kinase binding activity assay (Example 901), PIM-1 enzyme, Caliper microfluidic peptide phosphorylation. The assay is classed as biochemical. As to conditions: 20 pM PIM-1, 10 μM ATP, 1 μM FAM-peptide, 90 minutes at room temperature. The procedure, abridged:
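PIM-1 at 20 pM phosphorylated 1 μM FAM-labelled Pim peptide with 10 μM ATP in HEPES pH 7.2, MgCl2, Tween 20 and DTT for 90 min at room temperature. EDTA stopped the reaction, and product and substrate were resolved by microfluidic electrophoresis (ex 488/em 530 nm). Ki was derived from substrate conversion.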
Molecule `Cc1ccc(-c2n[nH]c3cnc(-c4cnn(C)c4)cc23)nc1N1CCC[C@H](O)C1` [Example 441, (S)-1-(3-methyl-6-(5-(1-methyl-1H-pyrazol-4-yl)-1H-pyrazolo[3,4-c]pyridin-3-yl)pyridin-2-yl)piperidin-3-ol] yielded a Ki of 0.062 nM. This lies in the picomolar range. For `CCn1cc(-c2cc3c(-c4ccc(C)c(N5CCC[C@@H](N)C5)n4)n[nH]c3cn2)cn1` [Example 443, (R)-1-(6-(5-(1-ethyl-1H-pyrazol-4-yl)-1H-pyrazolo[3,4-c]pyridin-3-yl)-3-methylpyridin-2-yl)piperidin-3-amine] the value was 0.1 nM. For `CCn1cc(-c2cc3c(-c4cccc(N5CCC[C@H](N)C5)n4)n[nH]c3cn2)cn1` [Example 445, (S)-1-(6-(5-(1-ethyl-1H-pyrazol-4-yl)-1H-pyrazolo[3,4-c]pyridin-3-yl)pyridin-2-yl)piperidin-3-amine] the value was 0.031 nM; for `CCn1cc(-c2cc3c(-c4cccc(N5CCNC(C)(C)C5)n4)n[nH]c3cn2)cn1` [Example 446, 3-(6-(3,3-dimethylpiperazin-1-yl)pyridin-2-yl)-5-(1-ethyl-1H-pyrazol-4-yl)-1H-pyrazolo[3,4-c]pyridine], 0.029 nM. Under `CCn1cc(-c2cc3c(-c4cccc(N5CCNCC(F)(F)C5)n4)n[nH]c3cn2)cn1` [Example 447, 3-(6-(6,6-difluoro-1,4-diazepan-1-yl)pyridin-2-yl)-5-(1-ethyl-1H-pyrazol-4-yl)-1H-pyrazolo[3,4-c]pyridine] stands 0.029 nM.

`CC(C)(C)n1cc(-c2cc3c(-c4cccc(N5CCNCC5)n4)n[nH]c3cn2)cn1` [Example 448, 5-(1-tert-butyl-1H-pyrazol-4-yl)-3-(6-(piperazin-1-yl)pyridin-2-yl)-1H-pyrazolo[3,4-c]pyridine]: the Ki was determined as 0.376 nM.

On to `Cn1cc(-c2cc3c(-c4ccc(Br)c(N5CCOCC5)n4)n[nH]c3cn2)cn1` [Example 449, 4-(3-bromo-6-(5-(1-methyl-1H-pyrazol-4-yl)-1H-pyrazolo[3,4-c]pyridin-3-yl)pyridin-2-yl)morpholine], for which the Ki was 0.191 nM. For `CCn1cc(-c2cc3c(-c4ccc(Br)c(N5C[C@@H](N)C[C@@H](F)C5)n4)n[nH]c3cn2)cn1` [Example 454, (3S,5R)-1-(3-bromo-6-(5-(1-ethyl-1H-pyrazol-4-yl)-1H-pyrazolo[3,4-c]pyridin-3-yl)pyridin-2-yl)-5-fluoropiperidin-3-amine] the value was 0.026 nM; for `CCn1cc(-c2cc3c(-c4ccc(Br)c(N5C[C@H](N)C[C@@H](F)C5)n4)n[nH]c3cn2)cn1` [Example 455, (3R,5R)-1-(3-bromo-6-(5-(1-ethyl-1H-pyrazoI-4-yl)-1H-pyrazolo[3,4-c]pyridin-3-yl)pyridin-2-yl)-5-fluoropiperidin-3-amine], 0.028 nM; for `Cn1cc(-c2cc3c(-c4ccc(Br)c(N5C[C@@H](N)C[C@@H](F)C5)n4)n[nH]c3cn2)cn1` [Example 456, (3S,5R)-1-(3-bromo-6-(5-(1-methyl-1H-pyrazol-4-yl)-1H-pyrazolo[3,4-c]pyridin-3-yl)pyridin-2-yl)-5-fluoropiperidin-3-amine], 0.03 nM. For `CCn1cc(-c2cc3c(-c4cc(C)cc(N5CCCNCC5)n4)n[nH]c3cn2)cn1` [Example 457, 3-(6-(1,4-diazepan-1-yl)-4-methylpyridin-2-yl)-5-(1-ethyl-1H-pyrazol-4-yl)-1H-pyrazolo[3,4-c]pyridine] the value was 0.049 nM; for `CCn1cc(-c2cc3c(-c4cccc(N5CCC[C@@](C)(O)C5)n4)n[nH]c3cn2)cn1` [Example 460, (R)-1-(6-(5-(1-ethyl-1H-pyrazol-4-yl)-1H-pyrazolo[3,4-c]pyridin-3-yl)pyridin-2-yl)-3-methylpiperidin-3-ol], 0.265 nM. For `CCn1cc(-c2cc3c(-c4cccc(NC5CCCC(N)C5)n4)n[nH]c3cn2)cn1` (stereo not drawn) [Example 461, N1-(6-(5-(1-ethyl-1H-pyrazol-4-yl)-1H-pyrazolo[3,4-c]pyridin-3-yl)pyridin-2-yl)cyclohexane-1,3-diamine] the value was 0.0593 nM; for `CCn1cc(-c2cc3c(-c4cccc(N5CCNC(CO)C5)n4)n[nH]c3cn2)cn1` (stereo not drawn) [Example 463, (4-(6-(5-(1-ethyl-1H-pyrazol-4-yl)-1H-pyrazolo[3,4-c]pyridin-3-yl)pyridin-2-yl)piperazin-2-yl)methanol], 0.084 nM; for `CCn1cc(-c2cc3c(-c4cccc(N5CCC[C@](C)(O)C5)n4)n[nH]c3cn2)cn1` [Example 464, (S)-1-(6-(5-(1-ethyl-1H-pyrazol-4-yl)-1H-pyrazolo[3,4-c]pyridin-3-yl)pyridine-2-yl)-3-methylpiperidin-3-ol], 0.0721 nM. In turn, `CCn1cc(-c2cc3c(-c4nc(N5CCC[C@H](N)C5)ccc4Cl)n[nH]c3cn2)cn1` [Example 466, (S)-1-(5-chloro-6-(5-(1-ethyl-1H-pyrazol-4-yl)-1H-pyrazolo[3,4-c]pyridin-3-yl)pyridin-2-yl)piperidin-3-amine] had a Ki of 0.389 nM. With `FC(F)(F)c1cncc(-c2cc3c(-c4cccc(N5CCNCC5)n4)n[nH]c3cn2)c1` [Example 467, 3-(6-(piperazin-1-yl)pyridin-2-yl)-5-(5-(trifluoromethyl)pyridin-3-yl)-1H-pyrazolo[3,4-c]pyridine], the Ki turned out to be 0.093 nM. This Ki lies about 4.2-fold lower than the previous one.

Molecule `CCn1cc(-c2cc3c(-c4cccc(N5CCNC(C(F)(F)F)C5)n4)n[nH]c3cn2)cn1` (stereo not drawn) [Example 468, 5-(1-ethyl-1H-pyrazol-4-yl)-3-(6-(3-(trifluoromethyl)piperazin-1-yl)pyridin-2-yl)-1H-pyrazolo[3,4-c]pyridine] yielded a Ki of 0.06 nM. Under `CCn1cc(-c2cc3c(-c4cc(C(F)(F)F)ccn4)n[nH]c3cn2)cn1` [Example 469, 5-(1-ethyl-1H-pyrazol-4-yl)-3-(4-(trifluoromethyl)pyridin-2-yl)-1H-pyrazolo[3,4-c]pyridine] stands 65.6 nM; under `CS(=O)(=O)c1cncc(-c2cc3c(-c4cccc(N5CCNCC5)n4)n[nH]c3cn2)c1` [Example 470, 5-(5-(methylsulfonyl)pyridin-3-yl)-3-(6-(piperazin-1-yl)pyridin-2-yl)-1H-pyrazolo[3,4-c]pyridine], 0.049 nM. Under `CCn1cc(-c2cc3c(-c4cccc(N5CCC[C@@H](N)CC5)n4)n[nH]c3cn2)cn1` [Example 471, (R)-1-(6-(5-(1-ethyl-1H-pyrazol-4-yl)-1H-pyrazolo[3,4-c]pyridin-3-yl)pyridin-2-yl)azepan-4-amine] stands 0.073 nM. Under `CCn1cc(-c2cc3c(-c4cccc(N5CCN(C(C)=O)CC5)n4)n[nH]c3cn2)cn1` [Example 472, 1-(4-(6-(5-(1-ethyl-1H-pyrazol-4-yl)-1H-pyrazolo[3,4-c]pyridin-3-yl)pyridin-2-yl)piperazin-1-yl)ethanone] stands 0.107 nM; under `N#CCn1cc(-c2cc3c(-c4cccc(N5CCNCC5)n4)n[nH]c3cn2)cn1` [Example 473, 2-(4-(3-(6-(piperazin-1-yl)pyridin-2-yl)-1H-pyrazolo[3,4-c]pyridin-5-yl)-1H-pyrazol-1-yl)acetonitrile], 0.022 nM; under `CCn1cc(-c2cc3c(-c4ccc(=O)n(CC5(C(N)=O)CCC5)c4)n[nH]c3cn2)cn1` [Example 475, 1-((5-(5-(1-ethyl-1H-pyrazol-4-yl)-1H-pyrazolo[3,4-c]pyridin-3-yl)-2-oxopyridin-1(2H)-yl)methyl) cyclobutanecarboxamidc], 4.49 nM. `CCn1cc(-c2cc3c(-c4cc(OC)ccn4)n[nH]c3cn2)cn1` [Example 476, 5-(1-ethyl-1H-pyrazol-4-yl)-3-(4-methoxypyridin-2-yl)-1H-pyrazolo[3,4-c]pyridine] showed a Ki of 15.7 nM. This Ki lies about 3.5-fold higher than the previous one. Under `CCc1ccc(-c2n[nH]c3cnc(-c4cnn(CC)c4)cc23)nc1N1CCC[C@H](N)C1` [Example 477, (S)-1-(3-ethyl-6-(5-(1-ethyl-1H-pyrazol-4-yl)-1H-pyrazolo[3,4-c]pyridin-3-yl)pyridin-2-yl)piperidin-3-amine] stands 0.013 nM; under `CCn1cc(-c2cc3c(-c4ccc(C(C)C)c(N5CCC[C@H](N)C5)n4)n[nH]c3cn2)cn1` [Example 478, (S)-1-(6-(5-(1-ethyl-1H-pyrazol-4-yl)-1H-pyrazolo[3,4-c]pyridin-3-yl)-3-isopropylpyridin-2-yl)piperidin-3-amine], 0.02 nM. Under `CCn1cc(-c2cc3c(-c4cncc(N5CCNCC5)n4)n[nH]c3cn2)cn1` [Example 479, 5-(1-ethyl-1H-pyrazol-4-yl)-3-(6-(piperazin-1-yl)pyrazin-2-yl)-1H-pyrazolo[3,4-c]pyridine] stands 0.064 nM; under `CCn1cc(-c2cc3c(-c4cccc(N5CCN(C6COC6)CC5)n4)n[nH]c3cn2)cn1` [Example 480, 5-(1-ethyl-1H-pyrazol-4-yl)-3-(6-(4-(oxetan-3-yl)piperazin-1-yl)pyridin-2-yl)-1H-pyrazolo[3,4-c]pyridine], 0.311 nM; under `CCn1cc(-c2cc3c(-c4cccc(N5CCC[C@H](N)CC5)n4)n[nH]c3cn2)cn1` [Example 481, (S)-1-(6-(5-(1-ethyl-1H-pyrazol-4-yl)-1H-pyrazolo[3,4-c]pyridin-3-yl)pyridin-2-yl)azepan-4-amine], 0.034 nM. The molecule `CCn1cc(-c2cc3c(-c4cccc(N5CCC[C@@H](NC)C5)n4)n[nH]c3cn2)cn1` [Example 482, (R)-1-(6-(5-(1-ethyl-1H-pyrazol-4-yl)-1H-pyrazolo[3,4-c]pyridin-3-yl)pyridin-2-yl)-N-methylpiperidin-3-amine] came in with a Ki of 0.147 nM. Turning to `CC(O)c1cncc(-c2cc3c(-c4cccc(N5CCNCC5)n4)n[nH]c3cn2)c1` (stereo not drawn) [Example 483, 1-(5-(3-(6-(piperazin-1-yl)pyridin-2-yl)-1H-pyrazolo[3,4-c]pyridin-5-yl)pyridin-3-yl)ethanol], the affinity, expressed as Ki, was 0.027 nM. Under `CCn1cc(-c2cc3c(-c4cc(C5CC5)ccn4)n[nH]c3cn2)cn1` [Example 484, 3-(4-cyclopropylpyridin-2-yl)-5-(1-ethyl-1H-pyrazol-4-yl)-1H-pyrazolo[3,4-c]pyridine] stands 11.5 nM.
